Laboratory results as given in the NIST ThermoML archive (doi:10.1021/je050406x).
Numbers after ± are expanded uncertainties.

How the values were obtained:
[1] = Crystal; DTA
[2] = Molar enthalpy of transition or fusion; conditions: Crystal; DSC

For `O=C1COCCO1` [1,4-dioxan-2-one], the Normal melting temperature [1] was 28.26 ± 0.5 °C and the “Molar enthalpy of transition or fusion” value [2] was 3.75 ± 0.0908 kcal/mol.
